Laboratory results taken from ChEMBL document CHEMBL5465560, “Selectivity Literature for EUbOPEN Chemogenomic Library” (2024).

How the values were obtained:
[1] = biological target: T1, Serine/threonine-protein kinase Nek5 (Homo sapiens) (UniProt Q6P3R8); experiment: Selectivity interaction (KinomeScan (DiscoverX)) EUB0000045b NEK5
T1 sequence (whole entry): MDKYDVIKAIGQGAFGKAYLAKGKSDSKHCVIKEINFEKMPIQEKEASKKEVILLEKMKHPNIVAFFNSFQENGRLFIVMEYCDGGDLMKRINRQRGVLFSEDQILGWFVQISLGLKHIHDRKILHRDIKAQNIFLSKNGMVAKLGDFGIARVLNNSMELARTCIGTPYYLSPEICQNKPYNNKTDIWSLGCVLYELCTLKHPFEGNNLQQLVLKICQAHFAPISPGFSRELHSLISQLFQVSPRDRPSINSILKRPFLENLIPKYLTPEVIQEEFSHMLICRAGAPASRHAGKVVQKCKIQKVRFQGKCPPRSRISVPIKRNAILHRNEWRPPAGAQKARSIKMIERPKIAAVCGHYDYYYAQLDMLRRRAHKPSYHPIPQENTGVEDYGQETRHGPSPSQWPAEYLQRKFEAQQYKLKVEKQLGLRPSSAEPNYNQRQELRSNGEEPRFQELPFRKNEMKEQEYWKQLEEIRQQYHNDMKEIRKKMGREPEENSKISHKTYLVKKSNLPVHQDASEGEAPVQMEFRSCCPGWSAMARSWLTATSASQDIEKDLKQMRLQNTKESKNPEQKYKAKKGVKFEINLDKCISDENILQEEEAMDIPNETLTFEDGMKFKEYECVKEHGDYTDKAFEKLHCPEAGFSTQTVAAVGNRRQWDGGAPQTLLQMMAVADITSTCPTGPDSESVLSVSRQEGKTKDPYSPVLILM

[2] = biological target: SRSF protein kinase 2 (Homo sapiens) (UniProt P78362); experiment: Selectivity interaction (KinomeScan (DiscoverX)) EUB0000695a SRPK2; details: at 100 nM
Sequence of SRSF protein kinase 2 (Homo sapiens) (P78362 whole entry, looked up, the tested form may be a part): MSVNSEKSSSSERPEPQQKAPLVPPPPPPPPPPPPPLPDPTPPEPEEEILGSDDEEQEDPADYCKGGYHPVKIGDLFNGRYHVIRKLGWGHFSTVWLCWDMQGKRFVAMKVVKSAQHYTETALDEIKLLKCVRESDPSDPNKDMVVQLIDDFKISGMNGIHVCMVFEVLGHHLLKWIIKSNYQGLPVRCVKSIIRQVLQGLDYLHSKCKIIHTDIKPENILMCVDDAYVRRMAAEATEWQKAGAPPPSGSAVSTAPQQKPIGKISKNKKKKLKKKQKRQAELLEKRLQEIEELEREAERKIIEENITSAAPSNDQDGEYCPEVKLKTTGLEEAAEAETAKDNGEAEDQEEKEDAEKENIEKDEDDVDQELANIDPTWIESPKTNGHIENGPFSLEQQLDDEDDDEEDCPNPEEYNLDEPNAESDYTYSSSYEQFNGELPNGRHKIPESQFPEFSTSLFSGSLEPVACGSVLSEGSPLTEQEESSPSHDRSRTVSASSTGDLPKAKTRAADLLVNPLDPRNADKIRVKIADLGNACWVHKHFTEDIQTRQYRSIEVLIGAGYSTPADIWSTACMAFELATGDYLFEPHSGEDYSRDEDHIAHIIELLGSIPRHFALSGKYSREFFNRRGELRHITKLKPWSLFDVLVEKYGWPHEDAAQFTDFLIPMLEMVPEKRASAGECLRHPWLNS

[3] = biological target: Epithelial discoidin domain-containing receptor 1 (Homo sapiens) (UniProt Q08345); experiment: Selectivity interaction (LanthaScreen Eu Kinase Binding Assay) EUB0001632a DDR1; details: at 10 µM
Sequence of Epithelial discoidin domain-containing receptor 1 (Homo sapiens) (Q08345 whole entry, the tested form may be a part): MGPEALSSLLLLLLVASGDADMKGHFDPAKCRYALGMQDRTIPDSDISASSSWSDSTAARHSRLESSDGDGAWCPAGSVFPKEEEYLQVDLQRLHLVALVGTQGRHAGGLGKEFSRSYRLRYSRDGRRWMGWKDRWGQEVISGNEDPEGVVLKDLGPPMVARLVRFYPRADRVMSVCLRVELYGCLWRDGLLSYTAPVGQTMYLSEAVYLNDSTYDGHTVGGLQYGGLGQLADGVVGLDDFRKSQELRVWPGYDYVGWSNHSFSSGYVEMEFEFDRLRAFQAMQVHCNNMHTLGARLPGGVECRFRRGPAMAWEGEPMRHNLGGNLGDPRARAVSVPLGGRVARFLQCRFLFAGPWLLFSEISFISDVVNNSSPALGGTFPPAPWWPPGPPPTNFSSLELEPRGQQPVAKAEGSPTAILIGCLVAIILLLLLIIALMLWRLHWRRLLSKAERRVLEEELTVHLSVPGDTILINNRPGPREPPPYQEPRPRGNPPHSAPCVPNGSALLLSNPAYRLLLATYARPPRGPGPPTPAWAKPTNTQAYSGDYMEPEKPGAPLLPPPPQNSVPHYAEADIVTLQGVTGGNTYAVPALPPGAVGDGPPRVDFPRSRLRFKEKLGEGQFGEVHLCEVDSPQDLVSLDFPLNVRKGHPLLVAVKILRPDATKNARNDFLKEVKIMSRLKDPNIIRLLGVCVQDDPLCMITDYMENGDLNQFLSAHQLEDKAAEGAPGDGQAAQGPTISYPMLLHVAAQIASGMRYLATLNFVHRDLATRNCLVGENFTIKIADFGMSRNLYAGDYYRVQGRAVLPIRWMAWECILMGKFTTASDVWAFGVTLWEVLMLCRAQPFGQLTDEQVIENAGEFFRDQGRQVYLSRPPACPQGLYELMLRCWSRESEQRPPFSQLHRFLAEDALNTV

[4] = biological target: T2, Histone-lysine N-methyltransferase NSD3 (Homo sapiens) (UniProt Q9BZ95); experiment: Selectivity interaction (Methyltransferase screen (radiometric assays, panel of 8 PRMTs, 21 protein lysine methyltransferases, 3 DNA methyltransferases, and one RNA methyltransferase)) EUB0000271b NSD3
T2 sequence (whole entry): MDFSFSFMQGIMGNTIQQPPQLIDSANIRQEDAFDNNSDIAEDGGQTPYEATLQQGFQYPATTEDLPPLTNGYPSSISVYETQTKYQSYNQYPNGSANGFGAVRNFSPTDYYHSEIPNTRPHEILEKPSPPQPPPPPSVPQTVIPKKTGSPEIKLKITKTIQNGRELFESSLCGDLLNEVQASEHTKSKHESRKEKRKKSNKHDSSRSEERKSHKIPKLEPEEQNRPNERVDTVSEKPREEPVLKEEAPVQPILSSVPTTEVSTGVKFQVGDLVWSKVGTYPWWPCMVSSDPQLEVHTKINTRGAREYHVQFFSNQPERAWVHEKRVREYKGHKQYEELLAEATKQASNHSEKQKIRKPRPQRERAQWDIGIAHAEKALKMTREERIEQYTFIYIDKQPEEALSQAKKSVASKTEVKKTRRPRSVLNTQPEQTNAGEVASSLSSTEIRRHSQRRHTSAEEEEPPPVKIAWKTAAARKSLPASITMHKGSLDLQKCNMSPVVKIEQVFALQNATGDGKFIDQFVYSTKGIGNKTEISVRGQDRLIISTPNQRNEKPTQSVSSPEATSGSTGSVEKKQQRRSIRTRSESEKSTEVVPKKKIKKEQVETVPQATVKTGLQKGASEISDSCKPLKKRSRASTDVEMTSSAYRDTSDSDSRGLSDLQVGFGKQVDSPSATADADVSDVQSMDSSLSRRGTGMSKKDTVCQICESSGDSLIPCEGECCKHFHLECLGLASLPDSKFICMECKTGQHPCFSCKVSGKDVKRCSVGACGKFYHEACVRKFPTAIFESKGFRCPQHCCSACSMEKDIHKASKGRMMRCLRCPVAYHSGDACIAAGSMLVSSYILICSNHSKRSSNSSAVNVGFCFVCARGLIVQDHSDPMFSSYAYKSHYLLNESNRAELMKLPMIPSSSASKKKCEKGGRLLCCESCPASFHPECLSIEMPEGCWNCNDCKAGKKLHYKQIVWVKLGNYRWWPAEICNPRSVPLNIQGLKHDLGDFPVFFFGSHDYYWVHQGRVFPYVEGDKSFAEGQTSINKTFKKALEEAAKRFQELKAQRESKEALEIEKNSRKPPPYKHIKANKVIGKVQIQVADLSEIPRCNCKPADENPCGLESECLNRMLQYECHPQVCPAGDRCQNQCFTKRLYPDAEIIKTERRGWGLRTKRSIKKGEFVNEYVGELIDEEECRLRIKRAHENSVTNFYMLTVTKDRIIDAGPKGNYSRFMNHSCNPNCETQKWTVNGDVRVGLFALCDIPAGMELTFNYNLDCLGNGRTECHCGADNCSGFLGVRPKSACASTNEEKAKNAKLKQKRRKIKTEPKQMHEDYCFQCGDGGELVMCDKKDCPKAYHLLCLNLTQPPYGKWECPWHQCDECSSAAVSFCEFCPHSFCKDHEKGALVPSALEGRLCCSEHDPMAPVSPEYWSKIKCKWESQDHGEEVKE

[5] = biological target: Serine/threonine-protein kinase WNK3 (Homo sapiens) (UniProt Q9BYP7); experiment: Selectivity interaction (Upstate Kinase Profiler service (Millipore)) EUB0000056c WNK3; details: at 1 µM
Sequence of Serine/threonine-protein kinase WNK3 (Homo sapiens) (Q9BYP7 whole entry): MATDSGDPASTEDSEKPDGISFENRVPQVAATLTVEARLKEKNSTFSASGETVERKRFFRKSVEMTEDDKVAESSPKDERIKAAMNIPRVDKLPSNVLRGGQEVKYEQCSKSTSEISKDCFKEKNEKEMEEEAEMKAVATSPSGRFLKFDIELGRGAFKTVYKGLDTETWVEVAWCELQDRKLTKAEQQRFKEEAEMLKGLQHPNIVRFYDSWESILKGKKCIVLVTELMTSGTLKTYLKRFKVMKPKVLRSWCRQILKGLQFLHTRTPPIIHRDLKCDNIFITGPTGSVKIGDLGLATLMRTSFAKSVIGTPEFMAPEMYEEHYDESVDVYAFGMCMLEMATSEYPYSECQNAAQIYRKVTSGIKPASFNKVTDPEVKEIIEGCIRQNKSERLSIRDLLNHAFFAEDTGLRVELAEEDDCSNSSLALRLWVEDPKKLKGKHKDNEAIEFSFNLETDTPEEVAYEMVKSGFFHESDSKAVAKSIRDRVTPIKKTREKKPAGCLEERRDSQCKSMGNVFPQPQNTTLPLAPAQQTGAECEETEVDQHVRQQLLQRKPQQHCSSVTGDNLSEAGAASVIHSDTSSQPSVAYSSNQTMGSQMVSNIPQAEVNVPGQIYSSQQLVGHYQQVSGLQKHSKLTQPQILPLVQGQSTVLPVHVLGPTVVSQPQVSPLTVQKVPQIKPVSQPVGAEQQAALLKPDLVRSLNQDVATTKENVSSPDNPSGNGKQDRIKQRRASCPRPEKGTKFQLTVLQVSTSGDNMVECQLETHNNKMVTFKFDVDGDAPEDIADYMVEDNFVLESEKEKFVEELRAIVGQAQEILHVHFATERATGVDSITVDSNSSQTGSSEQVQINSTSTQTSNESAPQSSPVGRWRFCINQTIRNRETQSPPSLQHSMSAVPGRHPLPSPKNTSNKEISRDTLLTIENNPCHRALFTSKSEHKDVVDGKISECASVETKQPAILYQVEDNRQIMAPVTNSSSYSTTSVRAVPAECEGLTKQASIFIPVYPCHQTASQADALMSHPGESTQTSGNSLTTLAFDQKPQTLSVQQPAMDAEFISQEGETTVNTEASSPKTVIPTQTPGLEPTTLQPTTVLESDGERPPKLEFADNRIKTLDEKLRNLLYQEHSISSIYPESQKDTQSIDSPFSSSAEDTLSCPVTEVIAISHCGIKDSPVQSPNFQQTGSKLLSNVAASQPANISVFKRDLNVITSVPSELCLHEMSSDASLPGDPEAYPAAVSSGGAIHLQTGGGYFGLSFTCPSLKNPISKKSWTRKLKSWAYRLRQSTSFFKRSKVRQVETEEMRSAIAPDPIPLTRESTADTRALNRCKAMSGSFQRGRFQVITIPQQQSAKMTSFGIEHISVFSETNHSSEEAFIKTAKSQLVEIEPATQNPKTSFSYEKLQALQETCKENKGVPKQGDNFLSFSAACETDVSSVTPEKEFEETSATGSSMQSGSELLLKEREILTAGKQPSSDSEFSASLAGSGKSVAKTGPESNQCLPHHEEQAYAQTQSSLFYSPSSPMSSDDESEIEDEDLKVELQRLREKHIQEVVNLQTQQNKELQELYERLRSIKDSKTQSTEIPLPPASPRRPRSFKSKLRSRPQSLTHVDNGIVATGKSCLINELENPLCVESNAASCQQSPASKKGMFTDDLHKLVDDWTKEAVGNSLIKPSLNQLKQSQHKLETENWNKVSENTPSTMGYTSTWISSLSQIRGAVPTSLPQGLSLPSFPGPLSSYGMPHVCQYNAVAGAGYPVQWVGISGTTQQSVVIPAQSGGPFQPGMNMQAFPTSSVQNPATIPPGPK

[6] = biological target: Cyclin-dependent kinase inhibitor 2A (Homo sapiens, UniProt P42771); experiment: Selectivity interaction (Kinase panel (33PanQinase(R) Activity Assay)) EUB0000877a CDKN2A
Sequence of Cyclin-dependent kinase inhibitor 2A (P42771 whole entry): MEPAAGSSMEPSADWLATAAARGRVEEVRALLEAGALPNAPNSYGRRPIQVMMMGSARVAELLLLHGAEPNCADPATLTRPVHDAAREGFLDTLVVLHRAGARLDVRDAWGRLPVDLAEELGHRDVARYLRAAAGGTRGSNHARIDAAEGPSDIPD

[7] = biological target: Platelet-derived growth factor receptor beta (Homo sapiens, UniProt P09619); experiment: Selectivity interaction (ProQinase) EUB0000171b PDGFRB
Sequence of Platelet-derived growth factor receptor beta (P09619 whole entry): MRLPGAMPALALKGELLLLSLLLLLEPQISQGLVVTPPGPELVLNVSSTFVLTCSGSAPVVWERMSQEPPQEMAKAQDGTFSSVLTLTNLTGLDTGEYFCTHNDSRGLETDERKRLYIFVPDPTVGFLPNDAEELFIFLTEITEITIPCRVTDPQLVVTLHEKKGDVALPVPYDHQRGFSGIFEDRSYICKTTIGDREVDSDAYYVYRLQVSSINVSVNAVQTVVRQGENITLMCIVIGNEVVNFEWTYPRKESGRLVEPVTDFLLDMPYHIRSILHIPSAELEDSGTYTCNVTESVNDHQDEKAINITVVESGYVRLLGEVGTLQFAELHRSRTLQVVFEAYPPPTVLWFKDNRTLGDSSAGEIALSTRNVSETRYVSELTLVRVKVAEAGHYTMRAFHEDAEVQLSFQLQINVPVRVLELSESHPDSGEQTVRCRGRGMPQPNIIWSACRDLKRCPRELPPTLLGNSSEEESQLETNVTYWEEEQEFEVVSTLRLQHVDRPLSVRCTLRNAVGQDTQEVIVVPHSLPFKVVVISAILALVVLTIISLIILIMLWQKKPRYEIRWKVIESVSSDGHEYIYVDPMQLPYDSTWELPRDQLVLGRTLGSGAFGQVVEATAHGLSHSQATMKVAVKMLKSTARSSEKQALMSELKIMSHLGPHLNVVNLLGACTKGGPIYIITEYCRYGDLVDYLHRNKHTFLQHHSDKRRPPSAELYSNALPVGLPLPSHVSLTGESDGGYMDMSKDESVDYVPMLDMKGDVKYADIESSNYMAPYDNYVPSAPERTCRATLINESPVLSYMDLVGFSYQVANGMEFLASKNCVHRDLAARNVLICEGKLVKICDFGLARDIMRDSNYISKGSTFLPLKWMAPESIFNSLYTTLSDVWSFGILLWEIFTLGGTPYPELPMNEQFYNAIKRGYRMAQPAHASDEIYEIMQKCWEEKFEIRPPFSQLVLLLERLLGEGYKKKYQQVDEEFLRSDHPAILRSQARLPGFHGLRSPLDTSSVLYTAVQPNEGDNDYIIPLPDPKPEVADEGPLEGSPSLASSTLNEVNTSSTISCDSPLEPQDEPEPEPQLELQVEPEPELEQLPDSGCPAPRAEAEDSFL

[8] = biological target: RAC-gamma serine/threonine-protein kinase (Homo sapiens, UniProt Q9Y243); experiment: Selectivity interaction (Kinase panel (Invitrogen)) EUB0000639a AKT3; details: at 200 nM

Structure (SMILES): C=CC(=O)Nc1cc(-n2c(=O)ccc3cnc4ccc(-c5ccc(NS(C)(=O)=O)cc5)cc4c32)ccc1C
- % of control ([1]; at 1 µM): 100%
- % of control ([1]; at 10 µM): 84%

Structure (SMILES): Cc1cc(F)c(C(=O)Nc2cccc(-c3nncn3C(C)C)n2)cc1-n1cnc(C2CC2)c1
- % of control [2]: 100%

Structure (SMILES): Cn1cc(-n2cnc3c(NCc4nc5cc(Cl)c(Cl)cc5[nH]4)nc(N4CCOCC4)nc32)cn1
- % of inhibition [3]: 0.322%

Structure (SMILES): Cc1cc(C)cc([C@@H]2c3cc(C)ccc3NC(=O)CN2C(=O)c2ccc(Br)s2)c1
- % of activity ([4]; at 1 µM): 99.3%
- % of activity ([4]; at 10 µM): 104%

Structure (SMILES): Cc1ccc(-c2ccc3c(ccc4sc5c(c43)NC[C@@H](C)NC5=O)n2)cn1
- % of inhibition [5]: -1%

Structure (SMILES): CCC(=O)N1CC[C@H](Nc2ncnc3c2CN(c2cnc(OC)c(C(F)(F)F)c2)CC3)C1 [LENIOLISIB]
- IC50 [6]: > 10 µM

Structure (SMILES): C=CC(=O)Nc1cccc(C(=O)Nc2ccc(Nc3cc(-c4[nH]c(SC)nc4C)ccn3)cc2)c1
- % of control ([7]; at 1 µM): 74%
- % of control ([7]; at 5 µM): 46%

Structure (SMILES): CC[C@@H]1[C@H](F)C(=O)N[C@@H]1COc1nccc2cc(C(N)=O)c(OC)cc12 [ZIMLOVISERTIB]
- % of inhibition [8]: 1.08%
